Measurements from patent publication US20220218677A1, “ARYLQUINOZILINE DERIVATIVES AS ALPHA2-ADRENOCEPTOR SUBTYPE C (ALPHA-2C) ANTAGONISTS FOR THE TREATMENT OF SLEEP APNEA” (Bayer Aktiengesellschaft, priority 2019, published 2022).

Test system: upper airway collapsibility in anaesthetized, spontaneously breathing pigs
Assay: pig model of obstructive sleep apnea (OSA): upper airway collapsibility under negative pressure
Assay type: in vivo, German Landrace pigs
Details: for Percent pigs without collaps −50 cm H2O / Percent pigs without collaps −100 cm H2O / Percent pigs without collaps −150 cm H2O: i.v. bolus 0.3 mg/kg then i.v. infusion 0.1 mg/kg/h
Text: The therapeutic potential of the compounds of formula (I) according to the present invention in sleep apnea has been assessed preclinically in a pig model of obstructive sleep apnea (OSA).
Using negative pressure, it is possible to induce collapse and thus obstruction of the upper respiratory tract in anaesthetized, spontaneously breathing pigs (Wirth K. J. et al., Sleep 36(5) (2013) pp. 699-708).
German Landrace pigs are used for the model. The pigs are anaesthetized and tracheotomized. Two tracheal are inserted into the trachea, one into the rostral part and the other into the caudal part of the trachea. Using a connection piece, the rostral cannula is connected to a tube to the negative pressure device and to the distal tracheal cannula. The distal tracheal cannula is additionally connected to a tube with an open end to atmosphere via a connection piece that served for free tracheal breathing, circumventing the upper airway. By appropriate opening and clamping of those tubes breathing can be switched from nasal breathing to breathing through the caudal tracheal cannula, circumventing the upper airway, and the (isolated) upper airway can be connected to the negative pressure device, causing airflow in the inspiratory direction.
At certain points in time, the collapsibility of the upper respiratory tract is tested by having the pig breathe via the caudal cannula and applying negative pressures of −50, −100 and −150 cm water head (cm H2O) to the upper respiratory tract. This causes the upper respiratory tract to collapse, which manifests itself in an interruption of the airflow and a pressure drop in the tube system. This test is conducted prior to the administration of the test substance and at certain intervals after the administration of the test substance. An appropriately effective test substance can prevent this collapse of the respiratory tract in the inspiratory phase.
In this OSA pig model, systemic application of the α2-Adrenoceptor subtype C (alpha-2C) antagonists of formula (I) (1S,12bS)-1-(methoxymethyl)-1-methyl-[…][2,3-a]quinolizine with i.v. bolus injection of 0.3 mg/kg followed by an i.v. infusion of 0.1 mg/kg/h for four hours inhibited upper airway collapsibility at all negative pressures of −50, −100 and −150 cm for more than 6 hours (see Table 1, 2 and 3 and FIG. 1).

[1] = time 0 min (time of administration)

COC[C@@]1(C)CCCN2CCc3c(oc4ccccc34)[C@@H]21 [(1S,12bS)-1-(methoxymethyl)-1-methyl-1,3,4,6,7,12b-hexahydro-2H-[1]benzofuro[2,3-a]quinolizine]
duration of inhibition of upper airway collapsibility (all negative pressures of −50, −100 and −150 cm, i.v. bolus 0.3 mg/kg followed by i.v. infusion 0.1 mg/kg/h for four hours): more than 6 hours
Percent pigs without collaps −50 cm H2O [1]: 0%
Percent pigs without collaps −100 cm H2O [1]: 0%
Percent pigs without collaps −150 cm H2O [1]: 0%
Percent pigs without collaps −50 cm H2O (time 10 min): 100%
Percent pigs without collaps −100 cm H2O (time 10 min): 100%
Percent pigs without collaps −150 cm H2O (time 10 min): 100%
Percent pigs without collaps −50 cm H2O (time 60 min): 100%
Percent pigs without collaps −100 cm H2O (time 60 min): 100%
Percent pigs without collaps −150 cm H2O (time 60 min): 100%
Percent pigs without collaps −50 cm H2O (time 120 min): 100%
Percent pigs without collaps −100 cm H2O (time 120 min): 100%
Percent pigs without collaps −150 cm H2O (time 120 min): 100%
Percent pigs without collaps −50 cm H2O (time 180 min): 100%
Percent pigs without collaps −100 cm H2O (time 180 min): 100%
Percent pigs without collaps −150 cm H2O (time 180 min): 100%
Percent pigs without collaps −50 cm H2O (time 240 min): 100%
Percent pigs without collaps −100 cm H2O (time 240 min): 100%
Percent pigs without collaps −150 cm H2O (time 240 min): 100%
Percent pigs without collaps −50 cm H2O (time 300 min): 100%
Percent pigs without collaps −100 cm H2O (time 300 min): 100%
Percent pigs without collaps −150 cm H2O (time 300 min): 100%
